# Test system: MIA PaCa-2 cells
# Assay: MTT assay, cancer cell growth inhibition (MIA PaCa-2)
# Format: cell-based
# Settings: Homo sapiens, MIA PaCa-2, 168 h, 7 days of treatment, read-out: MiaPaCa IC50
# Protocol: Measurement of cancer cell growth inhibition of the compounds of invention Cytotoxicity of the compounds was assessed by MTT assay. In brief, MIA PaCa-2 cells or BxPc3 cells were seeded in 96-well microtitre plates at density of 200 cells/well. After overnight attachment, cells were treated with compounds at indicated concentration. After 7 days of treatment, MTT solution (3 mg/ml, 20 μl) was added to each well and cells were incubated for 3 h at 37° C. After incubation, media from each well was removed and the dark blue formazan crystals formed by live cells were dissolved in DMSO ([…] per well). The absorbance intensity was measured at 570 nm on a microplate reader (Molecular Devices, Sunnyvale, Calif., USA). The half maximal inhibitory concentration (IC50) value were calculated using 4 or 6 dots curve plotted with Cumulative Gaussian equation or Log(inhibitor) vs. response equation in GraphPad Prism.
smiles,measurement,value
"CCOC(=O)[C@@H]1CCCN(S(=O)(=O)c2ccc(S(=O)(=O)N(CC)CC)cc2)C1 [DX2-201, ethyl (R)-1-((4-(N,N-diethylsulfamoyl)phenyl)sulfonyl)piperidine-3-carboxylate]",IC50,0.37 ± 0.06 µM

# Reference: patent publication US20230212122A1, “MITOCHONDRIAL TARGETING COMPOUNDS FOR THE TREATMENT OF ASSOCIATED DISEASES” (The Regents of the University of Michigan, priority 2020, published 2023)
